Results from US10975056B2 (GlaxoSmithKline Intellectual Property Development Limited, priority 2016, dated 2021).
Where “and” joins values, the source holds several entries; their conditions need not be identical. Equal entries are not always repeated. Structures can show the parent of a compound that is named as a salt. Where two headings read alike, the source gives them in different places.

Key:
[1] = system: erythroid progenitor cells (EPCs); assay: Fetal hemoglobin (HbF) ELISA in day 7 erythroid progenitor cells; type: cell-based, human; settings: Homo sapiens, Erythroid progenitor cell, HbF ELISA, day 7 EPCs, 5 days; read-out: EPC ELISA (pEC50 category) (converted);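 further: for fetal hemoglobin induction normalized to vehicle-treated cells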
Summary of the method: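 Day 7 EPCs from human bone marrow CD34+ cells were plated at 1,000 cells/well in media with 3 U/mL rhEPO. They were exposed to a 22-point dilution ([…]) for 5 days at 37 °C. Lysate HbF was measured by sandwich ELISA (OD450) and normalized to DMSO control wells.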

DNMT1 = DNMT1 (Homo sapiens, UniProt P26358); assay: DNMT1 biochemical activity, breaklight assay and/or SPA assay
[2] = binned activity in either the breaklight or the SPA assay, read-out: DNMT1 BioChemical (pIC50 category) (converted)
[3] = binned activity in either the breaklight or the SPA assay
[4] = breaklight assay and/or SPA assay, repeated experimental runs
[5] = breaklight assay and/or SPA assay, repeated experimental runs, read-out: average pIC50 against DNMT1 (converted)

DNMT1, sequence (P26358 whole entry, looked up): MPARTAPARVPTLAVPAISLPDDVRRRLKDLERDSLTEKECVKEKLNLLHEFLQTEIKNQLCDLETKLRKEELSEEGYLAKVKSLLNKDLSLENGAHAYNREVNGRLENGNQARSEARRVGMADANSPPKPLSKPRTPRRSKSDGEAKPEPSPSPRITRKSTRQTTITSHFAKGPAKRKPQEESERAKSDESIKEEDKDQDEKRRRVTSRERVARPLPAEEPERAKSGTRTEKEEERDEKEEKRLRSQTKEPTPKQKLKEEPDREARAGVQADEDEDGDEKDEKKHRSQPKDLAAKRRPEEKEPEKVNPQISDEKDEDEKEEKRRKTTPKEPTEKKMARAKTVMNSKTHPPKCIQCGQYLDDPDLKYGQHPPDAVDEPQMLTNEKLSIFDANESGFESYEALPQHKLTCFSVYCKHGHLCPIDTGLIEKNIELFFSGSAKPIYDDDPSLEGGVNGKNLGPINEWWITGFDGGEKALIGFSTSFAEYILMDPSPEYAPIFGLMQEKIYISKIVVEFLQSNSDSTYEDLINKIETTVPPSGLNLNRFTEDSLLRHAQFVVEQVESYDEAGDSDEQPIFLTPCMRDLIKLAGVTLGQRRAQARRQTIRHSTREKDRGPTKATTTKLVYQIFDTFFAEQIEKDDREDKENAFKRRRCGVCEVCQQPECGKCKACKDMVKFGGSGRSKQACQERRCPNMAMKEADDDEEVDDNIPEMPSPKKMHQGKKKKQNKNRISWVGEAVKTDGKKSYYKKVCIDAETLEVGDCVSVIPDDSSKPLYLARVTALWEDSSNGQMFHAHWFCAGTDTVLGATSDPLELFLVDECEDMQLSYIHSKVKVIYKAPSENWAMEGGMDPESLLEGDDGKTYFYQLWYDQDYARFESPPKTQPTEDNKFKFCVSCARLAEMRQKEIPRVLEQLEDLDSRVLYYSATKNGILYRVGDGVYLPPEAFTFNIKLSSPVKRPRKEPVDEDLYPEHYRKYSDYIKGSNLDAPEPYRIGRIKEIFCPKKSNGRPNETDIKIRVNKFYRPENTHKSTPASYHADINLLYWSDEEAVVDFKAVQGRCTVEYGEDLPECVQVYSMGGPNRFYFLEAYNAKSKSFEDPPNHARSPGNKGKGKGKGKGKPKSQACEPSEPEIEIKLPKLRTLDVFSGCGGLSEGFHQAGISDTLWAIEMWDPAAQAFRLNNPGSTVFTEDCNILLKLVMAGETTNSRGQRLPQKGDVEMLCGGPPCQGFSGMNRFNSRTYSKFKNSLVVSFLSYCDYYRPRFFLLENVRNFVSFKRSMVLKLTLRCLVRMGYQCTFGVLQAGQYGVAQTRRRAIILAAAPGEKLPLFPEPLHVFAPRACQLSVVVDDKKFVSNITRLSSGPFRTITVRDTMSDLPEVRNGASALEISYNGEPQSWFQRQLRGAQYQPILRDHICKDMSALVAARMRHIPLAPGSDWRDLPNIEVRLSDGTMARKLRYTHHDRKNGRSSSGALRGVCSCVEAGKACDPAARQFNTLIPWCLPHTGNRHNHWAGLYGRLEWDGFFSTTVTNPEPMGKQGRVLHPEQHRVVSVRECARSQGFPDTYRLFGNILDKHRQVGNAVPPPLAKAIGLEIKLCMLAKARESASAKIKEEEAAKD

Row | Structure (SMILES) | EC50 [1] [nM] | IC50 (DNMT1; [2]) [nM] | IC50 (DNMT1; [5]) | DNMT1 BioChemical (pIC50 category) (DNMT1; [3]) | average pIC50 against DNMT1 (DNMT1; [4])
1 | CCc1c(C#N)c(SC(C(N)=O)c2ccccc2)nc(N2CCC(=O)N(C)CC2)c1C#N (stereo not drawn) [Example 111, 2-{[3,5-Dicyano-4-ethyl-6-(4-methyl-5-oxo-1,4-diazepan-1-yl)pyridin-2-yl]sulfanyl}-2-phenylacetamide] | < 316 | 316 to 1000 | – | – | –
2 | N#Cc1c(SC(C(N)=O)c2ccccc2)nc(N2CC[C@H](N)C2)c(C#N)c1C1CC1 (stereo partly drawn) [Example 115, 2-({6-[(3S)-3-Aminopyrrolidin-1-yl]-3,5-dicyano-4-cyclopropylpyridin-2-yl}sulfanyl)-2-phenylacetamide] | < 316 | – | 200 nM | D (Category D: ≥6.5) | > 6.5
3 | CCc1c(C#N)c(SC(C(N)=O)c2ccccc2)nc(N2CCCN3CCCC3C2)c1C#N (stereo not drawn) [Example 117, 2-((3,5-Dicyano-4-ethyl-6-(hexahydro-1H-pyrrolo[1,2-a][1,4]diazepin-2(3H)-yl)pyridin-2-yl)thio)-2-phenylacetamide] | < 316 | 316 to 1000 | 316 to 1000 nM | – | –
4 | CCc1c(C#N)c(SC(C(N)=O)c2ccccc2)nc(N2CCN(CCCN(C)C)CC2)c1C#N (stereo not drawn) [Example 120] | < 316 | 316 to 1000 | 316 to 1000 nM | – | –
5 | CCc1c(C#N)c(SC(C(N)=O)c2ccccc2)nc(N2CCC(C3CCNC3)CC2)c1C#N (stereo not drawn) [Example 121, 2-((3,5-Dicyano-4-ethyl-6-(4-(pyrrolidin-3-yl)piperidin-1-yl)pyridin-2-yl)thio)-2-phenylacetamide; 2,2,2-trifluoroacetic acid] | 316 to 1000 | – | – | D (Category D: ≥6.5) | > 6.5
6 | CCc1c(C#N)c(SC(C(N)=O)c2ccccc2)nc(N2CCC(F)(F)CC2)c1C#N (stereo not drawn) [Example 133, 2-((3,5-Dicyano-6-(4,4-difluoropiperidin-1-yl)-4-ethylpyridin-2-yl)thio)-2-phenylacetamide] | 1000 to 31600 | 1000 to 31600 | ≥ 1000 nM | – | –
7 | CCc1c(C#N)c(S[C@@H](C(N)=O)c2ccccc2)nc(N2CC[C@@H](O)C2)c1C#N [Example 134, (R)-2-((3,5-Dicyano-4-ethyl-6-((R)-3-hydroxypyrrolidin-1-yl)pyridin-2-yl)thio)-2-phenylacetamide] | 1000 to 31600 | 316 to 1000 | – | – | –
8 | CN1CCCN(c2nc(SC(C(N)=O)c3ccccc3)c(C#N)c(-c3ccco3)c2C#N)CC1 (stereo not drawn) [Example 135, 2-((3,5-dicyano-4-(furan-2-yl)-6-(4-methyl-1,4-diazepan-1-yl)pyridin-2-yl)thio)-2-phenylacetamide] | 1000 to 31600 | 316 to 1000 | – | – | –
9 | CCc1c(C#N)c(SC(C(N)=O)c2ccccc2)nc(N2CCC(NC(=O)CN)CC2)c1C#N (stereo not drawn) [Example 137, 2-Amino-N-(1-(6-((2-amino-2-oxo-1-phenylethyl)thio)-3,5-dicyano-4-ethylpyridin-2-yl)piperidin-4-yl)acetamide, Trifluoroacetic Acid Salt] | 316 to 1000 | – | – | D (Category D: ≥6.5) | > 6.5
10 | CCc1c(C#N)c(SC(C(N)=O)c2ccccc2)nc(N2CCN(C(=O)C3(N)COC3)CC2)c1C#N (stereo not drawn) [Example 139, 2-((6-(4-(3-Aminooxetane-3-carbonyl)piperazin-1-yl)-3,5-dicyano-4-ethylpyridin-2-yl)thio)-2-phenylacetamide, Formic Acid Salt] | 316 to 1000 | – | – | D (Category D: ≥6.5) | –
11 | CCc1c(C#N)c(SC(C(N)=O)c2ccccc2)nc(N2CCC(NC(=O)C3(N)CCOCC3)CC2)c1C#N (stereo not drawn) [Example 140, 4-Amino-N-(1-(6-((2-amino-2-oxo-1-phenylethyl)thio)-3,5-dicyano-4-ethylpyridin-2-yl)piperidin-4-yl)tetrahydro-2H-pyran-4-carboxamide, Trifluoroacetic Acid Salt] | < 316 | – | – | D (Category D: ≥6.5) | –
12 | CCc1c(C#N)c(SC(C(N)=O)c2ccccc2)nc(N2CCN(C(=O)C3(N)CCOCC3)CC2)c1C#N (stereo not drawn) [Example 141, 2-((6-(4-(4-Aminotetrahydro-2H-pyran-4-carbonyl)piperazin-1-yl)-3,5-dicyano-4-ethylpyridin-2-yl)thio)-2-phenylacetamide, Trifluoroacetic Acid Salt] | < 316 | – | – | D (Category D: ≥6.5) | –
13 | CCc1c(C#N)c(SC(C(N)=O)c2ccccc2)nc(N(C)CCN)c1C#N (stereo not drawn) [Example 144, 2-((6-((2-Aminoethyl)(methyl)amino)-3,5-dicyano-4-ethylpyridin-2-yl)thio)-2-phenylacetamide, Trifluoroacetic Acid Salt] | < 316 | – | – | D (Category D: ≥6.5) | –
14 | CCc1c(C#N)c(SC(C(N)=O)c2ccccc2)nc(N2CC(O)C2)c1C#N (stereo not drawn) [Example 146, 2-((3,5-Dicyano-4-ethyl-6-(3-hydroxyazetidin-1-yl)pyridin-2-yl)thio)-2-phenylacetamide] | 316 to 1000 | – | – | D (Category D: ≥6.5) | –
15 | CCc1c(C#N)c(SC(C(N)=O)c2ccccc2)nc(N2CCC(OCCN)CC2)c1C#N (stereo not drawn) [Example 149, 2-((6-(4-(2-Aminoethoxy)piperidin-1-yl)-3,5-dicyano-4-ethylpyridin-2-yl)thio)-2-phenylacetamide, Trifluoroacetic Acid Salt] | < 316 | – | – | D (Category D: ≥6.5) | > 6.5
16 | CCc1c(C#N)c(SC(C(N)=O)c2ccccc2)nc(N(C)CCOP(=O)(O)O)c1C#N (stereo not drawn) [Example 151, 2-((6-((2-Amino-2-oxo-1-phenylethyl)thio)-3,5-dicyano-4-ethylpyridin-2-yl)(methyl)amino)ethyl dihydrocien phosphate] | > 31600 | 1000 to 31600 | – | – | –
17 | CCc1c(C#N)c(SC(C(N)=O)c2ccccc2)nc(N2CCC(OCCOP(=O)(O)O)CC2)c1C#N (stereo not drawn) [Example 154, 2-((1-(6-((2-Amino-2-oxo-1-phenylethyl)thio)-3,5-dicyano-4-ethylpyridin-2-yl)piperidin-4-epoxy)ethyldihydrogen phosphate] | 1000 to 31600 | 1000 to 31600 | – | – | –
18 | CCc1c(C#N)c(SCc2ccc(CNC(C)=O)cc2)nc(N2CCC(N)CC2)c1C#N [Example 156, N-(4-(((6-(4-Aminopiperidin-1-yl)-3,5-dicyano-4-ethylpyridin-2-yl)thio)methyl)benzyl)acetamide, Trifluoroacetic Acid Salt] | 316 to 1000 | – | – | D (Category D: ≥6.5) | –

Further lines, with some results ahead:

Row | EC50 [1] [nM] | IC50 (DNMT1; [2]) [nM] | IC50 (DNMT1; [5]) | Structure (SMILES) | DNMT1 BioChemical (pIC50 category) (DNMT1; [3]) | average pIC50 against DNMT1 (DNMT1; [4])
19 | < 316 | – | – | CCc1c(C#N)c(SC(C(N)=O)c2ccccc2)nc(N2CCC3(CCCNC3)CC2)c1C#N (stereo not drawn) [Example 116, 2-((3,5-Dicyano-4-ethyl-6-(2,9-diazaspiro[5.5]undecan-9-yl)pyridin-2-yl)thio)-2-phenylacetamide] | D (Category D: ≥6.5) | –
20 | < 316 | 316 to 1000 | 316 to 1000 nM and 398 nM | CCc1c(C#N)c(SC(C(N)=O)c2ccccc2)nc(N2CCC3(CCCN(CC4CC4)C3)CC2)c1C#N (stereo not drawn) [Example 119, 2-((3,5-Dicyano-6-(2-(cyclopropylmethyl)-2,9-diazaspiro[5.5]undecan-9-yl)-4-ethylpyridin-2-yl)thio)-2-phenylacetamide hydrochloride] | – | –
21 | 1000 to 31600 | 316 to 1000 | – | N#Cc1c(SC(C(N)=O)c2ccccc2)nc(N2CCN(CCCN)CC2)c(C#N)c1C1CC1 (stereo not drawn) [Example 124, 2-((6-(4-(3-Aminopropyl)piperazin-1-yl)-3,5-dicyano-4-cyclopropylpyridin-2-yl)thio)-2-phenylacetamide] | – | –
22 | 316 to 1000 | – | – | COc1c(C#N)c(SC(C(N)=O)c2ccccc2)nc(N2CCCN(CCO)CC2)c1C#N (stereo not drawn) [Example 142, 2-((3,5-Dicyano-6-(4-(2-hydroxyethyl)-1,4-diazepan-1-yl)-4-methoxypyridin-2-yl)thio)-2-phenylacetamide] | D (Category D: ≥6.5) | –
23 | 316 to 1000 | 316 to 1000 | – | CCc1c(C#N)c(SC(C(N)=O)c2ccccc2)nc(N(C)CCO)c1C#N (stereo not drawn) [Example 147, 2-(3,5-Dicyano-4-ethyl-6-((2-hydroxyethyl)(methyl)amino)pyridin-2-ylthio)-2-phenylacetamide] | – | –
24 | < 316 | – | – | CCc1c(C#N)c(SC(C(N)=O)c2ccccc2)nc(N2CCC(NC(=O)C(C)(C)N)CC2)c1C#N (stereo not drawn) [Example 148] | D (Category D: ≥6.5) | > 6.5
25 | > 31600 | 1000 to 31600 | – | CCc1c(C#N)c(SC(C(N)=O)c2ccccc2)nc(N2CCC(OP(=O)(O)O)C2)c1C#N (stereo not drawn) [Example 150, 1-(6-((2-Amino-2-oxo-1-phenylethyl)thio)-3,5-dicyano-4-ethylpyridin-2-yl)pyrrolidin-3-yl dihydrogen phosphate] | – | –
26 | 1000 to 31600 | 1000 to 31600 | – | CCc1c(C#N)c(SC(C(N)=O)c2ccccc2)nc(N2CC(OP(=O)(O)O)C2)c1C#N (stereo not drawn) [Example 152, 1-(6-((2-Amino-2-oxo-1-phenylethyl)thio)-3,5-dicyano-4-ethylpyridin-2-yl)azetidin-3-yl dihydrogen phosphate] | – | –
27 | 316 to 1000 | – | – | CCc1c(C#N)c(SC(C(N)=O)c2ccccc2)nc(N2CCC(OCCOC(=O)[C@@H](N)C(C)C)CC2)c1C#N (stereo partly drawn) [Example 153, (2S)-2-((1-(6-((2-Amino-2-oxo-1-phenylethyl)thio)-3,5-dicyano-4-ethylpyridin-2-yl)piperidin-4-yl)oxy)ethyl 2-amino-3-methylbutanoate] | D (Category D: ≥6.5) | –
28 | > 31600 | 1000 to 31600 | – | CCc1c(C#N)c(SC(C(N)=O)c2ccccc2)nc(N2CCC(OP(=O)(O)O)CC2)c1C#N (stereo not drawn) [Example 155, 1-(6-((2-Amino-2-oxo-1-phenylethyl)thio)-3,5-dicyano-4-ethylpyridin-2-yl)piperidin-4-yl dihydrogen phosphate] | – | –
